Data: article PMC4785407, “Reduction Impairs the Antibacterial Activity but Benefits the LPS Neutralization Ability of Human Enteric Defensin 5” (Scientific Reports, 2016)
“Also recorded” adds a separate entry of the source. Like-named read-outs stand apart in the source and are kept apart here. Bridge positions count the residues as written; N and C are the ends. Peptide text beside a SMILES is read from it.

Key:
[1] = tested on: E. coli ML35 (ATCC 43827) cells; test: Zeta potential determination; assay type: cell-based
Experimental: Samples were equilibrated at 25 °C for 2 min. Zeta potential was determined using the Zetasizer Nano ZS (Malvern Instruments, UK). A total of 6 measurements of 100 runs were carried out for each sample.

[2] = Biolayer interferometry (BLI), binding to lipid A; details: for Kd / Koff (dissociation rate constant) / Kon (association rate constant): BLI, 1:1 fit
Experimental: The recruitment of peptides to lipid A (Sigma L5399) was determined using Forte Bio’s “Octet Red 96” BLI (Pall Life Sciences, US). The amine-reactive second-generation (AR2G) biosensor was activated using 20 mM 1-ethyl-3-[3-dimethylaminopropy] carbodiimide hydrochloride (EDC, Sigma E1769) and 10 mM sulfo-N-hydroxysulfosuccinimide (s-NHS, Sigma 56485). Lipid A was immobilized on biosensors at the concentration of 20 μg/mL until the binding curves reached the plateau. Ethanolamine (1 M, pH 8.5) was used to quench the immobilization. Peptides were prepared in the running buffer (5 mM sodium phosphate buffer, pH 7.4), with concentrations of 200, 400, 600, 800, 1000, and 1200 nM, respectively. Association and disassociation, 5 min for each, were carried out at a shaking speed of 600 rpm. Biosensors were regenerated by 0.1 M Glycine-HCl buffer (pH 2.0). […] The binding thicknesses were processed using Fortebio Data Analysis 7.0 software, in which the methods for y-axis alignment, inter-step correction, and Savitzky-Golay filtering were specified. The equilibrium dissociation constant (KD), calculated as the ratio of the dissociation rate constant (Koff) to the association rate constant (Kon), was generated by a 1:1 fitting model. This experiment was repeated three times.
^a The binding kinetics between peptides and bacterial lipid A were determined with a biolayer interferometry (BLI). Lipid A was immobilized on AR2G biosensors at the concentration of 20 μg/mL until the binding curves reached the plateau. Peptides were prepared in the running buffer (5 mM sodium phosphate buffer, pH 7.4), with concentrations of 200, 400, 600, 800, 1000, and 1200 nM, respectively. Association and disassociation, 5 min for each, were carried out at a shaking speed of 600 rpm. The bindings were processed using Fortebio Data Analysis 7.0 software, which specifies the methods for y-axis alignment, inter-step correction, reference subtraction, and Savitzky-Golay filtering. The experiment was repeated three times.
^b Kon, the association rate constant; Koff, the dissociation rate constant; KD, the equilibrium dissociation constant; R^2, the fitting correlation coefficient. These parameters were generated by a 1:1 fitting model. KD is calculated as the ratio of Koff to Kon. […]

[3] = tested on: E. coli ML35 (ATCC 43827) outer membrane; test: Outer membrane penetration (NPN uptake assay); assay type: cell-based; details: 6.25 μg/mL, 10 mM sodium phosphate buffer pH 7.4, 37 °C, 1 h; vs HD5OX
Experimental: Then, an aliquot of 10 μL of NPN (Sigma 104043) was added, resulting in a final concentration of 10 μM. After excitation at 350 nm, the fluorescent intensity was measured in the range from 380-450 nm at intervals of 2 nm using a Tecan Infinite […] microplate reader.

[4] = tested on: E. coli ML35 inner membrane; test: Inner membrane permeabilization (ONPG); assay type: cell-based; details: 6.25 and 12.5 μg/mL, 37 °C, 2 h, absorbance 405 nm, vs HD5OX
Experimental: The production of 2-nitrophenol (ONP), a marker of inner membrane penetration, was determined by measuring the absorbance at 405 nm.

[5] = Hydrophobicity of the Trx reduction product (LC-MS); assay type: physicochemical; details: linear gradient of 5–45% acetonitrile with 0.1% TFA, vs HD5OX
Experimental: (§1) A mixture of 30 μM HD5OX, 15 μM human thioredoxin (Trx, Prospec PRO569), 500 nM rat liver thioredoxin reductase (TrxR, Sigma T9698), 1 mM NADPH (Sigma N5130), and 2 mM EDTA was incubated in 100 mM sodium phosphate buffer (pH 7.0) at room temperature for 1 h. The reaction was quenched by adding 6% trifluoroacetic acid (TFA). The solution was then centrifuged (10,000 g × 10 min) at 4 °C and analyzed with an Agilent 6410 liquid chromatography-mass spectrometry (LC-MS) instrument using a linear gradient of 5–45% acetonitrile that contained 0.1% TFA.

[6] = tested on: Enterococcus faecalis (ATCC 29212); test: virtual colony count assay, E. faecalis; details: HD5OX vs HD5RED
[7] = tested on: E. coli ML35 cells; test: Membrane depolarization, flow cytometry DiBAC4(3); details: 6.25 μg/mL; for DP (depolarized cells): 37 °C, 1 h, DiBAC4(3) flow cytometry, representative scatter plot
[8] = tested on: human thioredoxin (Trx); test: HD5OX reduction by thioredoxin in vitro, LC-MS; assay type: biochemical; details: 30 μM HD5OX, 15 μM human Trx, 500 nM rat liver TrxR, 1 mM NADPH, 2 mM EDTA, pH 7.0, room temperature, 1 h
Experimental: as §1

[9] = tested on: bacteria; details: among the α defensins; cited from earlier work
Description: Oxidized human defensin 5 (HD5OX), a 32-residue α defensin, is stored in the secretory granules of Paneth cells in the small intestine as a propeptide (E20-R94) and is processed by anionic and/or meso isoforms of trypsin during secretion or shortly thereafter at a cleavage site between R62 and A63[6]. […] We have previously prepared bioactive HD5OX using Pichia pastoris and design ... || HD5OX is an endogenous bactericidal agent.

[10] = tested on: CD4^+T cells; details: cited from earlier work
Description: Human defensins are also noted for their immunoregulatory properties. […] Additionally, some defensins are able to suppress the pro-inflammatory effect of bacterial lipopolysaccharide (LPS). For example, H ...

[11] = cited from earlier work
Description: Upon examining the biochemical properties of synthetic IDRs, the structural flexibility was noted. For example, the bovine bactenecin linear derivative 1018 adopts various folds in different media, relative to the natural peptide, to adapt to different functions. […] It can be exp ...

[12] = tested on: anthrax lethal factor (LF); details: cited from earlier work
[13] = tested on: HIV gp-120; details: cited from earlier work
[14] = AR2G biosensor, 5 mM sodium phosphate buffer pH 7.4, 200-1200 nM, mean ± SD from three independent assays, read-out: KD (equilibrium dissociation constant) binding to lipid A
[15] = lipid A, repeat 1th, read-out: KD
[16] = lipid A, repeat 2th, read-out: KD
[17] = lipid A, repeat 3th, read-out: KD

| SMILES | Kd [2, 14] | Koff (dissociation rate constant) ([2]; lipid A, repeat 1th) | Kon (association rate constant) ([2]; lipid A, repeat 1th) | Kd [2, 15] | Koff (dissociation rate constant) ([2]; lipid A, repeat 2th) | Kon (association rate constant) ([2]; lipid A, repeat 2th) | Kd [2, 16] | Koff (dissociation rate constant) ([2]; lipid A, repeat 3th) | Kon (association rate constant) ([2]; lipid A, repeat 3th) | Kd [2, 17] | DP (depolarized cells) [7] | further results |
| --- | --- | --- | --- | --- | --- | --- | --- | --- | --- | --- | --- | --- |
| CC[C@H](C)[C@H](NC(=O)[C@H](CCC(=O)O)NC(=O)[C@H](CS)NC(=O)[C@@H](NC(=O)CNC(=O)[C@H](CO)NC(=O)[C@H](CC(C)C)NC(=O)[C@H](CO)NC(=O)[C@H](CCC(=O)O)NC(=O)[C@H](CCCNC(=N)N)NC(=O)[C@@H](NC(=O)[C@H](C)NC(=O)[C@H](CS)NC(=O)[C@H](CCCNC(=N)N)NC(=O)CNC(=O)[C@@H](NC(=O)[C@H](CCCNC(=N)N)NC(=O)[C@H](CS)NC(=O)[C@H](Cc1ccc(O)cc1)NC(=O)[C@H](CS)NC(=O)[C@@H](NC(=O)[C@H](C)N)[C@@H](C)O)[C@@H](C)O)[C@@H](C)O)C(C)C)C(=O)N[C@@H](CO)C(=O)NCC(=O)N[C@@H](CCCNC(=N)N)C(=O)N[C@@H](CC(C)C)C(=O)N[C@@H](Cc1ccc(O)cc1)C(=O)N[C@@H](CCCNC(=N)N)C(=O)N[C@@H](CC(C)C)C(=O)N[C@@H](CS)C(=O)N[C@@H](CS)C(=O)N[C@@H](CCCNC(=N)N)C(=O)O [HD5RED] (H-ATCYCRTGRCATRESLSGVCEISGRLYRLCCR-OH) | 140 ± 30 nM | 0.000389 s⁻¹ | 2140 M⁻¹ s⁻¹ | 182 nM | 0.000337 s⁻¹ | 2570 M⁻¹ s⁻¹ | 131 nM | 0.000264 s⁻¹ | 2250 M⁻¹ s⁻¹ | 117 nM | 2.04% | zeta potential of cells, compared with HD5OX ([1]; 12.5 and 50 μg/mL, peptide vs HD5OX): significantly less than that of cells treated with HD5OX; also recorded: less efficient in altering the bacterial surface charge than HD5OX; zeta potential of cells ([1]; E. coli ML35 cells, 10 mM sodium phosphate buffer pH 7.4, 1% TSB, 25 °C): approximately −37 mV; recruitment to lipid A ([2]; 1000 nM, 5 mM sodium phosphate buffer, HD5RED vs HD5OX): fewer HD5RED than HD5OX molecules were recruited to the lipid A; fold KD relative to HD5OX ([2]; lipid A, higher than HD5OX): 1.9 -fold; outer membrane destruction (NPN fluorescence intensity) [3]: destroys the outer membrane less effectively than HD5OX; inner membrane disintegration [4]: attenuated potency for disintegrating the bacterial inner membrane; hydrophobicity of product [5]: increased hydrophobicity; efficiency against Gram-positive E. faecalis, relative [6]: less than HD5OX; membrane depolarization, relative ([7]; HD5RED vs HD5OX, mean of three independent experiments): less efficiency of HD5RED in inducing membrane depolarization relative to HD5OX; also recorded: significantly lower than that of HD5OX |
| CC[C@H](C)[C@@H]1NC(=O)[C@H](CCC(=O)O)NC(=O)[C@@H]2CSSC[C@@H]3NC(=O)[C@H](Cc4ccc(O)cc4)NC(=O)[C@@H](NC(=O)[C@@H](NC(=O)[C@H](C)N)[C@@H](C)O)CSSC[C@@H](C(=O)N[C@@H](CCCNC(=N)N)C(=O)O)NC(=O)[C@H](CSSC[C@H](NC(=O)[C@H](CCCNC(=N)N)NC(=O)CNC(=O)[C@H]([C@@H](C)O)NC(=O)[C@H](CCCNC(=N)N)NC3=O)C(=O)N[C@@H](C)C(=O)N[C@@H]([C@@H](C)O)C(=O)N[C@@H](CCCNC(=N)N)C(=O)N[C@@H](CCC(=O)O)C(=O)N[C@@H](CO)C(=O)N[C@@H](CC(C)C)C(=O)N[C@@H](CO)C(=O)NCC(=O)N[C@@H](C(C)C)C(=O)N2)NC(=O)[C@H](CC(C)C)NC(=O)[C@H](CCCNC(=N)N)NC(=O)[C@H](Cc2ccc(O)cc2)NC(=O)[C@H](CC(C)C)NC(=O)[C@H](CCCNC(=N)N)NC(=O)CNC(=O)[C@H](CO)NC1=O [HD5OX, Oxidized human defensin 5] (H-ATCYCRTGRCATRESLSGVCEISGRLYRLCCR-OH; disulfide 3-31, 5-20, 10-30; N-terminus and C-terminus assumed) | 75 ± 24 nM | 0.000324 s⁻¹ | 6320 M⁻¹ s⁻¹ | 51.3 nM | 0.000536 s⁻¹ | 5410 M⁻¹ s⁻¹ | 99.1 nM | 0.000509 s⁻¹ | 6830 M⁻¹ s⁻¹ | 74.5 nM | 31.8% | reduction by Trx [8]: Trx catalyzed the reduction of HD5OX in vitro; antibacterial activity [9]: widest spectrum of antibacterial activity among the α defensins; IL-2 production [10]: can induce the production of IL-8 and IL-2; LPS binding [11]: can bind LPS; binding and inhibition of anthrax lethal factor [12]: efficiently bind and inhibit anthrax lethal factor; binding and inhibition of HIV gp-120 [13]: efficiently bind and inhibit |
